Among the data in US20250034159A1, “INHIBITORS OF EPIDERMAL GROWTH FACTOR RECEPTOR” (ORIC Pharmaceuticals, Inc., priority 2021, published 2025) are IC50 values, retold here.

For experiment [1], the target named is recombinant human EGFR exon 19 deletion/C797S double mutant protein (Homo sapiens (Human), UniProt P00533, C797S/DEL746-750). The experiment is described as follows: Biological Activity Assay C: biochemical assay against EGFR exon 19 deletion/C797S protein (EGFR d19/CS). Summed up: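 IC50 values were fitted with a 4-parameter model to reaction slopes taken from 90 kinetic reads spaced 120 s apart. The Phosphosens sensor/ATP working solution was 40 uM/4 mM, and compound was dosed as 16-point dilutions at 2.5% final DMSO.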

A further experiment has as its system Ba/F3_EGFR WT cells. The experiment in a line: Biological Activity Assay D: BaF3 cell proliferation assay, EGFR wild-type (BaF3 WT). It counts as cell-based. As to conditions: Ba/F3 EGFR, read-out: BaF3 WT IC50.
A further experiment has as its system BaF3_EGFR LR/CS cells. The experiment is described as follows: Biological Activity Assay D: BaF3 cell proliferation assay, EGFR L858R/C797S mutant (BaF3 LR/CS). The format is cell-based. Particulars: Ba/F3 EGFR, read-out: BaF3 LR/CS IC50.
The next experiment relates to BaF3_EGFR d19/CS cells. The experiment is described as follows: Biological Activity Assay D: BaF3 cell proliferation assay, EGFR exon 19 deletion/C797S (BaF3 d19/CS). The format is cell-based. As to conditions: Ba/F3 EGFR, read-out: BaF3 d19/CS IC50.
Setting [2] is: Ba/F3_EGFR WT cells, ~72 hours, CellTiter-Glo.
Setting [3] is: BaF3_EGFR LR/CS cells, ~72 hours, CellTiter-Glo.
Where [4] appears, read: BaF3_EGFR d19/CS cells, ~72 hours, CellTiter-Glo.

SMILES strings stand for the structures. Read-outs that look alike come from different tables or passages of the source.

Sequence of recombinant human EGFR exon 19 deletion/C797S double mutant protein (P00533 other isoform, or with tags, fused parts or gaps C797S/del 1-668/del 746-750 limits assumed): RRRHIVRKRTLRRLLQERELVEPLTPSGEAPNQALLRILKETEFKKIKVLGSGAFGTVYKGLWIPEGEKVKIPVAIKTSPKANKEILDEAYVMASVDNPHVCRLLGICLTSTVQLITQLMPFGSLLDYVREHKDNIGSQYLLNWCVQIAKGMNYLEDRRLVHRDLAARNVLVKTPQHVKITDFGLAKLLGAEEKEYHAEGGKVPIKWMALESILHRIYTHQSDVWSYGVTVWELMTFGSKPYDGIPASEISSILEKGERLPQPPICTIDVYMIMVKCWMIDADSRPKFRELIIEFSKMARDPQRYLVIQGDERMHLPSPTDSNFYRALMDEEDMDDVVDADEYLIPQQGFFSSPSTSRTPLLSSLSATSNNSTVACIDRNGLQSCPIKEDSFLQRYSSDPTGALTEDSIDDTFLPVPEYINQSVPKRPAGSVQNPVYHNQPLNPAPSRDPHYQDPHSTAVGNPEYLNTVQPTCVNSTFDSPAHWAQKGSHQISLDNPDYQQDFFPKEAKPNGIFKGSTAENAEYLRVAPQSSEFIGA

Consider `O=S1(=O)CC(n2cc(-c3ncnc4oc(C5=CCCNC5)cc34)c(-c3ccc(F)cc3)n2)C1` [Example 159, 3-{3-(4-fluorophenyl)-4-[6-(1,2,5,6-tetrahydropyridin-3-yl)furo[2,3-d]pyrimidin-4-yl]-1H-pyrazol-1-yl}-1λ6-thietane-1,1-dione], for which the IC50 in experiment [1] was 3.79 nM; in the experiment on Ba/F3_EGFR WT cells (setting [2]) it was 6050 nM; in the experiment with BaF3_EGFR LR/CS cells (setting [3]), 511 nM; in the experiment with BaF3_EGFR d19/CS cells (setting [4]), 267 nM.

Regarding `O=C1CCCCN1c1cc2c(-c3cn(C4CS(=O)(=O)C4)nc3-c3ccc(F)cc3)ncnc2o1` [Example 160, 3-{3-(4-fluorophenyl)-4-[6-(2-oxopiperidin-1-yl)furo[2,3-d]pyrimidin-4-yl]-1H-pyrazol-1-yl}-1λ6-thietane-1,1-dione], the IC50 turned out to be 4.99 nM in experiment [1], 14200 nM with Ba/F3_EGFR WT cells (setting [2]), 751 nM in the experiment on BaF3_EGFR LR/CS cells (setting [3]) and 359 nM in the experiment with BaF3_EGFR d19/CS cells (setting [4]).

Consider `N=S1(=O)CCC(n2cc(-c3ncnc4oc(-c5ccccc5)cc34)c(-c3ccc(F)cc3)n2)C1` (stereo not drawn) [Example 161, 3-[3-(4-fluorophenyl)-4-(6-phenylfuro[2,3-d]pyrimidin-4-yl)-1H-pyrazol-1-yl]-1-imino-1λ6-thiolan-1-one], for which the IC50 in experiment [1] worked out at 0.14 nM; in the experiment on Ba/F3_EGFR WT cells (setting [2]) it was 565 nM; in the experiment with BaF3_EGFR LR/CS cells (setting [3]) it was 4.93 nM; in the experiment on BaF3_EGFR d19/CS cells (setting [4]), 13.1 nM.

Turning to `C[C@]1(O)C[C@@H](Cn2cc(-c3ncnc4oc(-c5ccccc5)cc34)c(-c3ccc(F)cc3)n2)C1` [Example 162, (1s,3s)-3-{[3-(4-fluorophenyl)-4-(6-phenylfuro[2,3-d]pyrimidin-4-yl)-1H-pyrazol-1-yl]methyl}-1-methylcyclobutan-1-ol], the IC50 stood at 0.44 nM in experiment [1], 1360 nM in the experiment with Ba/F3_EGFR WT cells (setting [2]), 10.6 nM in the experiment on BaF3_EGFR LR/CS cells (setting [3]) and 63.9 nM with BaF3_EGFR d19/CS cells (setting [4]).

With `CS(=O)(=O)[C@H]1C[C@@H](n2cc(-c3ncnc4oc(-c5ccccc5)cc34)c(-c3ccc(F)cc3)n2)C1` [Example 163, 4-{3-(4-fluorophenyl)-1-[(1s,3s)-3-(methanesulfonyl)cyclobutyl]-1H-pyrazol-4-yl}-6-phenylfuro[2,3-d]pyrimidine], the IC50 in experiment [1] was found to be 0.27 nM; in the experiment with Ba/F3_EGFR WT cells (setting [2]), 619 nM; in the experiment on BaF3_EGFR LR/CS cells (setting [3]), 10.1 nM; in the experiment on BaF3_EGFR d19/CS cells (setting [4]), 22.1 nM.

With `O=S1(=O)CC(n2cc(-c3ncnc4oc(-c5cccnc5)cc34)c(-c3ccc(F)cc3)n2)C1` [Example 164, 3-{3-(4-fluorophenyl)-4-[6-(pyridin-3-yl)furo[2,3-d]pyrimidin-4-yl]-1H-pyrazol-1-yl}-1λ6-thietane-1,1-dione], the IC50 in experiment [1] was found to be 0.29 nM; in the experiment with Ba/F3_EGFR WT cells (setting [2]), 888 nM; in the experiment with BaF3_EGFR LR/CS cells (setting [3]), 26.3 nM; in the experiment with BaF3_EGFR d19/CS cells (setting [4]) it was 36.3 nM.

`O=S1(=O)CC(n2cc(-c3ncnc4oc(-c5ccncc5)cc34)c(-c3ccc(F)cc3)n2)C1` [Example 165, 3-{3-(4-fluorophenyl)-4-[6-(pyridin-4-yl)furo[2,3-d]pyrimidin-4-yl]-1H-pyrazol-1-yl}-1λ6-thietane-1,1-dione]: the IC50 stood at 0.26 nM in experiment [1], 1090 nM in the experiment on Ba/F3_EGFR WT cells (setting [2]), 20.6 nM with BaF3_EGFR LR/CS cells (setting [3]) and 37 nM with BaF3_EGFR d19/CS cells (setting [4]).

As to `O=S1(=O)CC(n2cc(-c3ncnc4oc(N5CC6(CCOC6)C5)cc34)c(-c3ccc(F)cc3)n2)C1` [Example 168, 3-{3-(4-fluorophenyl)-4-[6-(6-oxa-2-azaspiro[3.4]octan-2-yl)furo[2,3-d]pyrimidin-4-yl]-1H-pyrazol-1-yl}-1λ6-thietane-1,1-dione], the IC50 was 15.6 nM in experiment [1], more than 20000 nM in the experiment on Ba/F3_EGFR WT cells (setting [2]), 3570 nM with BaF3_EGFR LR/CS cells (setting [3]) and 1150 nM with BaF3_EGFR d19/CS cells (setting [4]).

Consider `O=S1(=O)CC(n2cc(-c3ncnc4oc(-c5cccc(C(F)(F)F)c5)cc34)c(-c3ccc(F)cc3)n2)C1` [Example 169, 3-[3-(4-fluorophenyl)-4-{6-[3-(trifluoromethyl)phenyl]furo[2,3-d]pyrimidin-4-yl}-1H-pyrazol-1-yl]-1λ6-thietane-1,1-dione], for which the IC50 in experiment [1] turned out to be 3.08 nM; in the experiment with Ba/F3_EGFR WT cells (setting [2]), 11300 nM; in the experiment on BaF3_EGFR LR/CS cells (setting [3]) it was 399 nM; in the experiment on BaF3_EGFR d19/CS cells (setting [4]), 461 nM.

With `Fc1ccc(-c2nn(C3CC(F)(F)C3)cc2-c2ncnc3oc(-c4ccccc4)cc23)cc1` [Example 170, 4-[1-(3,3-difluorocyclobutyl)-3-(4-fluorophenyl)-1H-pyrazol-4-yl]-6-phenylfuro[2,3-d]pyrimidine], the IC50 is 1.37 nM in experiment [1], 4840 nM with Ba/F3_EGFR WT cells (setting [2]), 97.1 nM with BaF3_EGFR LR/CS cells (setting [3]) and 213 nM in the experiment with BaF3_EGFR d19/CS cells (setting [4]).

Regarding `O=S1(=O)CCC(n2cc(-c3ncnc4[nH]c(-c5ccccc5)nc34)c(-c3ccc(F)cc3)n2)C1` (stereo not drawn) [Example 171, 3-[3-(4-fluorophenyl)-4-(8-phenyl-9H-purin-6-yl)-1H-pyrazol-1-yl]-1λ6-thiolane-1,1-dione], the IC50 was 0.06 nM in experiment [1], 1810 nM in the experiment with Ba/F3_EGFR WT cells (setting [2]), 7.74 nM in the experiment with BaF3_EGFR LR/CS cells (setting [3]) and 26.6 nM with BaF3_EGFR d19/CS cells (setting [4]).

Turning to `Fc1ccc(-c2nn([C@H]3C[C@H]4CC[C@@H](C3)O4)cc2-c2ncnc3oc(-c4ccccc4)cc23)cc1` [Example 172, 4-{3-(4-fluorophenyl)-1-[(1R,3r,5S)-8-oxabicyclo[3.2.1]octan-3-yl]-1H-pyrazol-4-yl}-6-phenylfuro[2,3-d]pyrimidine], the IC50 in experiment [1] stood at 1.44 nM; in the experiment on Ba/F3_EGFR WT cells (setting [2]) it was 7050 nM; with BaF3_EGFR LR/CS cells (setting [3]), 33.1 nM; with BaF3_EGFR d19/CS cells (setting [4]), 199 nM.

With `O=S1(=O)CC(n2cc(-c3ncnc4oc(-c5ccccn5)cc34)c(-c3ccc(F)cc3)n2)C1` [Example 173, 3-{3-(4-fluorophenyl)-4-[6-(pyridin-2-yl)furo[2,3-d]pyrimidin-4-yl]-1H-pyrazol-1-yl}-1λ6-thietane-1,1-dione], the IC50 is 0.11 nM in experiment [1], 800 nM with Ba/F3_EGFR WT cells (setting [2]), 17.6 nM in the experiment on BaF3_EGFR LR/CS cells (setting [3]) and 28.9 nM in the experiment with BaF3_EGFR d19/CS cells (setting [4]).

For `O=S1(=O)CC(n2cc(-c3ncnc4oc(-c5ccnnc5)cc34)c(-c3ccc(F)cc3)n2)C1` [Example 174, 3-{3-(4-fluorophenyl)-4-[6-(pyridazin-4-yl)furo[2,3-d]pyrimidin-4-yl]-1H-pyrazol-1-yl}-1λ6-thietane-1,1-dione], the IC50 in experiment [1] was found to be 3.72 nM; in the experiment on Ba/F3_EGFR WT cells (setting [2]), 9070 nM; with BaF3_EGFR LR/CS cells (setting [3]), 770 nM; with BaF3_EGFR d19/CS cells (setting [4]), 491 nM.

As for `O=S1(=O)CC(n2cc(-c3ncnc4oc(-c5cncnc5)cc34)c(-c3ccc(F)cc3)n2)C1` [Example 175, 3-{3-(4-fluorophenyl)-4-[6-(pyrimidin-5-yl)furo[2,3-d]pyrimidin-4-yl]-1H-pyrazol-1-yl}-1λ6-thietane-1,1-dione], the IC50 in experiment [1] was determined as 6.08 nM; in the experiment with Ba/F3_EGFR WT cells (setting [2]), 11700 nM; in the experiment on BaF3_EGFR LR/CS cells (setting [3]), 472 nM; in the experiment with BaF3_EGFR d19/CS cells (setting [4]), 248 nM.

As for `NC(=O)c1cccc(-c2cc3c(-c4cn(C5CS(=O)(=O)C5)nc4-c4ccc(F)cc4)ncnc3o2)c1` [Example 176, 3-{4-[1-(1,1-dioxo-1λ6-thietan-3-yl)-3-(4-fluorophenyl)-1H-pyrazol-4-yl]furo[2,3-d]pyrimidin-6-yl}benzamide], the IC50 in experiment [1] is 0.36 nM; in the experiment on Ba/F3_EGFR WT cells (setting [2]) it was 2540 nM; in the experiment on BaF3_EGFR LR/CS cells (setting [3]), 134 nM; with BaF3_EGFR d19/CS cells (setting [4]), 140 nM.

With `O=S1(=O)CC(n2cc(-c3ncnc4oc(-c5cccc(C6CC6)c5)cc34)c(-c3ccc(F)cc3)n2)C1` [Example 178, 3-{4-[6-(3-cyclopropylphenyl)furo[2,3-d]pyrimidin-4-yl]-3-(4-fluorophenyl)-1H-pyrazol-1-yl}-16-thietane-1,1-dione], the IC50 in experiment [1] is 2.27 nM; with Ba/F3_EGFR WT cells (setting [2]), 5200 nM; in the experiment with BaF3_EGFR LR/CS cells (setting [3]) it was 89.7 nM; in the experiment on BaF3_EGFR d19/CS cells (setting [4]), 187 nM.

As to `CCn1cc(-c2ncnc3oc(-c4ccccc4)cc23)c(-c2ccc(F)cc2)n1` [Example 179, 4-[1-ethyl-3-(4-fluorophenyl)-1H-pyrazol-4-yl]-6-phenylfuro[2,3-d]pyrimidine], the IC50 turned out to be 0.39 nM in experiment [1], 2200 nM in the experiment on Ba/F3_EGFR WT cells (72 h), 17.2 nM in the experiment with BaF3_EGFR LR/CS cells (72 h) and 41 nM in the experiment on BaF3_EGFR d19/CS cells (72 h).

Regarding `O=C(c1ccccc1)N1CC=C(c2cc3c(-c4cn(C5CS(=O)(=O)C5)nc4-c4ccc(F)cc4)ncnc3o2)CC1` [Example 180, 3-{4-[6-(1-benzoyl-1,2,3,6-tetrahydropyridin-4-yl)furo[2,3-d]pyrimidin-4-yl]-3-(4-fluorophenyl)-1H-pyrazol-1-yl}-1λ6-thietane-1,1-dione], the IC50 in experiment [1] came to 0.39 nM; in the experiment with Ba/F3_EGFR WT cells (setting [2]) it was 2920 nM; in the experiment on BaF3_EGFR LR/CS cells (setting [3]) it was 128 nM; with BaF3_EGFR d19/CS cells (setting [4]), 161 nM.

For the compound `CS(=O)(=O)N1CC=C(c2cc3c(-c4cn(C5CS(=O)(=O)C5)nc4-c4ccc(F)cc4)ncnc3o2)CC1` [Example 181, 3-[3-(4-fluorophenyl)-4-{6-[1-(methanesulfonyl)-1,2,3,6-tetrahydropyridin-4-yl]furo[2,3-d]pyrimidin-4-yl}-1H-pyrazol-1-yl]-1λ6-thietane-1,1-dione], the IC50 was 0.27 nM in experiment [1], 2110 nM in the experiment with Ba/F3_EGFR WT cells (setting [2]), 79.3 nM in the experiment on BaF3_EGFR LR/CS cells (setting [3]) and 97 nM in the experiment on BaF3_EGFR d19/CS cells (setting [4]).

As for `O=S1(=O)CC(n2cc(-c3ncnc4oc(-c5ccccc5C(F)(F)F)cc34)c(-c3ccc(F)cc3)n2)C1` [Example 182, 3-[3-(4-fluorophenyl)-4-{6-[2-(trifluoromethyl)phenyl]furo[2,3-d]pyrimidin-4-yl}-1H-pyrazol-1-yl]-1λ6-thietane-1,1-dione], the IC50 is 1.65 nM in experiment [1], more than 20000 nM with Ba/F3_EGFR WT cells (setting [2]), 444 nM with BaF3_EGFR LR/CS cells (setting [3]) and 392 nM in the experiment on BaF3_EGFR d19/CS cells (setting [4]).
